Species on record: Rattus norvegicus
Assay: Open TG-GATES - Regimen: Single
Type: toxicity, organism-based, Sprague-Dawley
Design: regimen Single, gender Male, age 6 weeks
Conditions: in vivo, iv, 40 mg/kg, route intravenous injection, dose level Middle; for APTT / Bas / Eos / Fbg / Hb / Ht / Lym / MCH / MCHC / MCV / Mono / Neu / PT / Plat / RBC / Ret / WBC: tissue Blood; for KIDNEY_L / KIDNEY_R / KIDNEY_TOTAL: tissue Kidney; for LIVER: tissue Liver; for A/G / ALP / ALT / AST / BUN / CRE / Ca / Cl / DBIL / GLC / IP / K / LDH / Na / PL / RALB / TBIL / TC / TG / TP / gamma-GTP: tissue Plasma

CN(C)c1ncnc2c1ncn2[C@@H]1O[C@H](CO)[C@@H](N)[C@H]1O [PUROMYCIN AMINONUCLEOSIDE]
TERMINAL_BW (3 h): 219 g | APTT (3 h): 21.1 s | Bas (3 h): 0% | Eos (3 h): 0.4% | Fbg (3 h): 283.6 mg/dL | Hb (3 h): 12.7 g/dL | Ht (3 h): 38% | Lym (3 h): 55.6% | MCH (3 h): 21.2 pg | MCHC (3 h): 33.6% | MCV (3 h): 63.3 fL | Mono (3 h): 4.2% | Neu (3 h): 38% | PT (3 h): 16.2 s | Plat (3 h): 115.8 x10_4/uL | RBC (3 h): 600.8 x10_4/ul | Ret (3 h): 6.9% | WBC (3 h): 148.2 x10_2/uL | KIDNEY_L (3 h): 0.9 g | KIDNEY_R (3 h): 1 g | KIDNEY_TOTAL (3 h): 1.9 g | LIVER (3 h): 9.9 g | A/G (3 h): 1.2 | ALP (3 h): 1624.6 IU/L | ALT (3 h): 39.2 IU/L | AST (3 h): 74 IU/L | BUN (3 h): 14.2 mg/dL | CRE (3 h): 0.2 mg/dL | Ca (3 h): 11.2 mg/dL | Cl (3 h): 105 meq/L | DBIL (3 h): 0.002 mg/dL | GLC (3 h): 177 mg/dL | IP (3 h): 8 mg/dL | K (3 h): 4.3 meq/L | LDH (3 h): 163.4 IU/L | Na (3 h): 140.6 meq/L | PL (3 h): 149 mg/dL | RALB (3 h): 2.9 g/dL | TBIL (3 h): 0.014 mg/dL | TC (3 h): 76.2 mg/dL | TG (3 h): 127.8 mg/dL | TP (3 h): 5.3 g/dL | gamma-GTP (3 h): 1 IU/L | TERMINAL_BW (6 h): 216.4 g | APTT (6 h): 22.5 s | Bas (6 h): 0% | Eos (6 h): 0.6% | Fbg (6 h): 317.6 mg/dL | Hb (6 h): 13 g/dL | Ht (6 h): 39% | Lym (6 h): 57.2% | MCH (6 h): 21 pg | MCHC (6 h): 33.5% | MCV (6 h): 62.8 fL | Mono (6 h): 3.4% | Neu (6 h): 37.8% | PT (6 h): 15.6 s | Plat (6 h): 134.5 x10_4/uL | RBC (6 h): 620.8 x10_4/ul | Ret (6 h): 6.9% | WBC (6 h): 125.7 x10_2/uL | KIDNEY_L (6 h): 1 g | KIDNEY_R (6 h): 1 g | KIDNEY_TOTAL (6 h): 1.9 g | LIVER (6 h): 9.6 g | A/G (6 h): 1.3 | ALP (6 h): 1345.2 IU/L | ALT (6 h): 38.2 IU/L | AST (6 h): 68.6 IU/L | BUN (6 h): 12.8 mg/dL | CRE (6 h): 0.1 mg/dL | Ca (6 h): 11.2 mg/dL | Cl (6 h): 104.2 meq/L | DBIL (6 h): 0 mg/dL | GLC (6 h): 175.2 mg/dL | IP (6 h): 9.6 mg/dL | K (6 h): 4.3 meq/L | LDH (6 h): 166.6 IU/L | Na (6 h): 139.2 meq/L | PL (6 h): 149.2 mg/dL | RALB (6 h): 3 g/dL | TBIL (6 h): 0.024 mg/dL | TC (6 h): 78.4 mg/dL | TG (6 h): 81.6 mg/dL | TP (6 h): 5.4 g/dL | gamma-GTP (6 h): 1.2 IU/L | TERMINAL_BW (9 h): 210.8 g | APTT (9 h): 21.5 s | Bas (9 h): 0% | Eos (9 h): 1% | Fbg (9 h): 315.4 mg/dL | Hb (9 h): 13 g/dL | Ht (9 h): 38.9% | Lym (9 h): 62% | MCH (9 h): 20.6 pg | MCHC (9 h): 33.4% | MCV (9 h): 61.7 fL | Mono (9 h): 2.2% | Neu (9 h): 34.6% | PT (9 h): 15.9 s | Plat (9 h): 132.8 x10_4/uL | RBC (9 h): 631.6 x10_4/ul | Ret (9 h): 7.2% | WBC (9 h): 96.5 x10_2/uL | KIDNEY_L (9 h): 0.9 g | KIDNEY_R (9 h): 0.9 g | KIDNEY_TOTAL (9 h): 1.9 g | LIVER (9 h): 8.7 g | A/G (9 h): 1.3 | ALP (9 h): 1104.4 IU/L | ALT (9 h): 35.8 IU/L | AST (9 h): 67 IU/L | BUN (9 h): 12.6 mg/dL | CRE (9 h): 0.1 mg/dL | Ca (9 h): 11.1 mg/dL | Cl (9 h): 104.2 meq/L | DBIL (9 h): 0.002 mg/dL | GLC (9 h): 176.6 mg/dL | IP (9 h): 10.3 mg/dL | K (9 h): 4.6 meq/L | LDH (9 h): 146 IU/L | Na (9 h): 139.6 meq/L | PL (9 h): 145.4 mg/dL | RALB (9 h): 3.1 g/dL | TBIL (9 h): 0.024 mg/dL | TC (9 h): 76.4 mg/dL | TG (9 h): 103.8 mg/dL | TP (9 h): 5.5 g/dL | gamma-GTP (9 h): 1.6 IU/L | TERMINAL_BW (24 h): 217.2 g | APTT (24 h): 20.8 s | Bas (24 h): 0% | Eos (24 h): 0.8% | Fbg (24 h): 315.4 mg/dL | Hb (24 h): 13 g/dL | Ht (24 h): 37.9% | Lym (24 h): 85% | MCH (24 h): 21.3 pg | MCHC (24 h): 34.3% | MCV (24 h): 62 fL | Mono (24 h): 3% | Neu (24 h): 10.2% | PT (24 h): 15.9 s | Plat (24 h): 116 x10_4/uL | RBC (24 h): 613.4 x10_4/ul | Ret (24 h): 6% | WBC (24 h): 71.4 x10_2/uL | KIDNEY_L (24 h): 1 g | KIDNEY_R (24 h): 1 g | KIDNEY_TOTAL (24 h): 2 g | LIVER (24 h): 9.9 g | A/G (24 h): 1.3 | ALP (24 h): 1315 IU/L | ALT (24 h): 46 IU/L | AST (24 h): 73 IU/L | BUN (24 h): 19.6 mg/dL | CRE (24 h): 0.2 mg/dL | Ca (24 h): 11.4 mg/dL | Cl (24 h): 103.2 meq/L | DBIL (24 h): 0.002 mg/dL | GLC (24 h): 179.2 mg/dL | IP (24 h): 10 mg/dL | K (24 h): 4.5 meq/L | LDH (24 h): 186.2 IU/L | Na (24 h): 140.6 meq/L | PL (24 h): 142 mg/dL | RALB (24 h): 3.1 g/dL | TBIL (24 h): 0.016 mg/dL | TC (24 h): 75 mg/dL | TG (24 h): 89.4 mg/dL | TP (24 h): 5.6 g/dL | gamma-GTP (24 h): 1.6 IU/L
